Consider 8 compounds from US20100099674A1 (priority 2007, published 2010).

In test [1] the test system is Enterotoxic Escherichia coli (ETEC). It counts as cell-based.
Test [2] relates to YopH secretion by Yersinia-strain pIB102. It counts as cell-based, Y. pseudotuberculosis. Conditions: reduction of assay read-out (pNPP dephosphorylation, 405 nm) at 50 or 20 μM; Ca2+ depleted medium, 37° C.
Test [3] has as its system J774A cells infected with Y. pseudotuberculosis YPIII (pIB102). It counts as cell-based. Conditions: survival of the infected J774A cells at 20 or 10 μM; MOI 10, 16 h of infection.
The test system of test [4] is Yersinia strain pIB102EL (YopE gene transcriptionally fused to luxAB). It counts as cell-based, Y. pseudotuberculosis.

Take `O=[N+]([O-])c1cc(CN2CCC(c3ccccc3)C2)c(O)c2ncccc12` (stereo not drawn) [Substance 5]: the “Ex vivo ETEC (Neg Control)” value in test [1] was “++ (key: + = >70% survival of the infected cells at 50 μM; ++ = >70% survival of the infected cells at 20 μM)”. The “YopH Assay” value in test [2] is listed as “++ (++ = <50% reduction of assay read-out at 20 μM)”. Besides, the “Ex vivo Y. pseudotb.” value in test [3] is “+ (+ = >70% survival of the infected cells at 20 μM)”. Further, the “Lux Assay” value in test [4] is listed as “++ (key: + = <50% reduction of assay read-out at 50 μM; ++ = <50% reduction of assay read-out at 20 μM)”.

Turning to `Oc1c(CN2CCN(c3ccc(F)cc3)CC2)cc(Br)c2cccnc12` [Substance 7], in test [1], the “Ex vivo ETEC (Neg Control)” value is “++ (key: + = >70% survival of the infected cells at 50 μM; ++ = >70% survival of the infected cells at 20 μM)”. Besides, the “YopH Assay” value in test [2] is recorded as “+ (+ = <50% reduction of assay read-out at 50 μM)”. For the same compound, the “Ex vivo Y. pseudotb.” value in test [3] is “++ (++ = >70% survival of the infected cells at 10 μM)”. Besides, the “Lux Assay” value in test [4] is listed as “+ (key: + = <50% reduction of assay read-out at 50 μM; ++ = <50% reduction of assay read-out at 20 μM)”.

As to `CC1CN(Cc2cc([N+](=O)[O-])c3cccnc3c2O)CC(C)O1` (stereo not drawn) [Substance 4], the “Ex vivo ETEC (Neg Control)” value in test [1] was “+ (key: + = >70% survival of the infected cells at 50 μM; ++ = >70% survival of the infected cells at 20 μM)”. In test [2], the “YopH Assay” value is “+ (+ = <50% reduction of assay read-out at 50 μM)”. Also, the “Ex vivo Y. pseudotb.” value in test [3] is recorded as “+ (+ = >70% survival of the infected cells at 20 μM)”. Moreover, in test [4], the “Lux Assay” value is “+ (key: + = <50% reduction of assay read-out at 50 μM; ++ = <50% reduction of assay read-out at 20 μM)”.

Take `O=[N+]([O-])c1cc(CN2CCN(c3ccccc3)CC2)c(O)c2ncccc12` [Substance 1]: the “YopH Assay” value in test [2] was “++ (++ = <50% reduction of assay read-out at 20 μM)”. Further, the “Ex vivo Y. pseudotb.” value in test [3] is reported as “++ (++ = >70% survival of the infected cells at 10 μM)”. In test [4], the “Lux Assay” value is recorded as “++ (key: + = <50% reduction of assay read-out at 50 μM; ++ = <50% reduction of assay read-out at 20 μM)”.

On to `Oc1c(CN2CCN(c3ccc(F)cc3)CC2)cc(Cl)c2cccnc12` [Substance 8], for which, in test [1], the “Ex vivo ETEC (Neg Control)” value was “+ (key: + = >70% survival of the infected cells at 50 μM; ++ = >70% survival of the infected cells at 20 μM)”. Further, the “YopH Assay” value in test [2] was “+ (+ = <50% reduction of assay read-out at 50 μM)”. Besides, in test [3], the “Ex vivo Y. pseudotb.” value was “++ (++ = >70% survival of the infected cells at 10 μM)”. Also, the “Lux Assay” value in test [4] is reported as “+ (key: + = <50% reduction of assay read-out at 50 μM; ++ = <50% reduction of assay read-out at 20 μM)”.

On to `Oc1c(CN2CCN(c3ccccn3)CC2)cc(Cl)c2cccnc12` [Substance 6], for which the “Ex vivo ETEC (Neg Control)” value in test [1] is reported as “+ (key: + = >70% survival of the infected cells at 50 μM; ++ = >70% survival of the infected cells at 20 μM)”. Also, in test [2], the “YopH Assay” value is reported as “+ (+ = <50% reduction of assay read-out at 50 μM)”. In addition, in test [3], the “Ex vivo Y. pseudotb.” value is listed as “+ (+ = >70% survival of the infected cells at 20 μM)”. The “Lux Assay” value in test [4] is given as “+ (key: + = <50% reduction of assay read-out at 50 μM; ++ = <50% reduction of assay read-out at 20 μM)”.

Turning to `CN(Cc1cc([N+](=O)[O-])c2cccnc2c1O)C1CCCCC1` [Substance 2], the “Lux Assay” value in test [4] is “+ (key: + = <50% reduction of assay read-out at 50 μM; ++ = <50% reduction of assay read-out at 20 μM)”.

`COc1ccccc1N1CCN(Cc2cc([N+](=O)[O-])c3cccnc3c2O)CC1` [Substance 3]: the “YopH Assay” value in test [2] is “+ (+ = <50% reduction of assay read-out at 50 μM)”. Besides, the “Ex vivo Y. pseudotb.” value in test [3] is given as “+ (+ = >70% survival of the infected cells at 20 μM)”. In test [4], the “Lux Assay” value is listed as “++ (key: + = <50% reduction of assay read-out at 50 μM; ++ = <50% reduction of assay read-out at 20 μM)”.
